The values below come from PubChem BioAssay (NCI).

Structures are written as SMILES. Where “and” joins values, the source holds several entries; their conditions need not be identical. Equal values may be shown once.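 Values below derive from 48-hour exposures of cells grown in 96-well plates, with endpoints linearly interpolated between the two concentrations bracketing the appropriate inhibition level. At the TGI there is no net growth.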

Assay in all cases: inhibition of tumour cell growth, NCI panel, 48 h
Assay [1] relates to 786-0 renal.
Assay [2] concerns SW-620 colon.
For assay [3], the system named is A549 NSCLC.
Assay [4] has as its system NCI-H23 lung.
The subject of assay [5] is KM12 colon.
The test system of assay [6] is DMS 273 small cell lung.
Assay [7] has as its system SK-MEL-2 melanoma.
In assay [8] the test system is OVCAR-8 ovarian.
The test system of assay [9] is A498 renal.
Assay [10] relates to MOLT-4 leukemia.

Take `COc1ccccc1OCC(COC(=O)Nc1ccc(C)cc1)OC(=O)Nc1ccc(C)cc1` (stereo not given): the TGI is 44 µM in assay [1]; 28.1 µM in assay [2]; greater than 100 µM in assay [3]; 63.7 µM in assay [4]; 43.4 µM in assay [5]; 32 µM in assay [6]. In addition, the TGI is 31.4 µM in [7], 38.4 µM in assay [8], greater than 100 µM in assay [9] and 48.8 µM in assay [10].

Consider `C/C(=N\NC(=S)Nc1ccc([N+](=O)[O-])cc1S(=O)(=O)O)c1ccccn1`, for which the TGI in [1] was greater than 100 µM; in assay [2], 56.5 µM; in assay [3] it was greater than 100 µM; in assay [4], greater than 100 µM; in assay [5] it was greater than 100 µM; in assay [6] it was greater than 100 µM. In addition, the TGI in assay [7] was 91.3 µM; in [8], greater than 100 µM; in assay [9], 88.8 µM; in assay [10] it was greater than 100 µM.

For the compound `O=[N+]([O-])C(=C(c1ccccc1)c1ccccc1)[N+](=O)[O-]`, the TGI in assay [1] is 27.7 µM; in assay [2], 25.4 µM; in assay [3], 51.3 µM; in [4] it was 52.8 µM; in assay [5], 30.2 µM; in assay [6], 22.5 µM. The TGI in assay [7] turned out to be 6.83 µM; in assay [8], 21.5 µM; in assay [9], 28.6 µM; in assay [10], 22.7 µM.

On to `N#CC(/C(=N\NC(N)=S)C(=O)NC1C2CC3CC(C2)CC1C3)c1ccc(Cl)cc1` (stereo not given), for which the TGI in assay [1], in assay [2], in [3], in assay [4], in [5] and in assay [6] was greater than 100 µM throughout. The TGI in assay [7], in [8], in assay [9] and in assay [10] was greater than 100 µM each time.

In the case of `COc1cc(C(N)=O)c(OC)c(OC)c1OC`, the TGI in assay [1], in [2], in assay [3], in [4], in [5] and in assay [6] was greater than 100 µM in each case. The TGI in assay [7], in assay [8], in [9] and in assay [10] was greater than 100 µM throughout.

As for `Cc1nc(Nc2ccc([N+](=O)[O-])cc2)sc1C(=O)/C=C/c1ccc(N(C)C)cc1`, the TGI in assay [1], in assay [2], in [3], in [4], in [5] and in [6] was greater than 100 µM throughout. Besides, the TGI in [7], in assay [8], in assay [9] and in [10] was greater than 100 µM throughout.

As to `COC(=N)/C(=C1\OC(N)=C(c2ccc(Cl)cc2)C1=O)c1ccc(Cl)cc1`, the TGI in assay [1], in assay [2], in assay [3], in [4], in assay [5] and in assay [6] was greater than 100 µM in each case. The TGI in assay [7], in assay [8], in assay [9] and in assay [10] was greater than 100 µM in each case.

As for `CCCCCCCCSC(SCCCCCCCC)=C1C(=O)N(c2ccccc2)N=C1C`, the TGI in assay [1] was greater than 100 µM; in [2] it was 29 µM; in assay [3], greater than 100 µM; in assay [4], 95.1 µM; in [5] it was greater than 100 µM; in assay [6], greater than 100 µM. The TGI in assay [7] was greater than 100 µM; in [8], greater than 100 µM; in assay [9] it was 92.7 µM; in assay [10], 82.2 µM.

As to `NC(=O)Cn1c(=O)[nH]c(=O)c2[nH]cnc21`, the TGI in [1], in [2], in [3], in [4], in [5] and in [6] was greater than 100 µM throughout. The TGI in [7], in assay [8], in assay [9] and in assay [10] was greater than 100 µM in each case.

As to `O=C1C=Cc2noc3cccc1c23`, the TGI stood at 20.7 µM in assay [1]; 16.2 µM in assay [2]; 38.7 µM in [3]; 26 µM in assay [4]; 19.1 µM in assay [5]; 20.4 µM in [6]. The TGI in [7] was 21.2 µM; in assay [8], 8.13 µM; in assay [9], 27.5 µM; in assay [10], greater than 100 µM.

Regarding `CC(C)S(=O)(=O)n1c(N)nc2ccc(/C(=N/O)c3ccccc3)cc21`, the TGI is greater than 100 µM in assay [1]; 45.3 µM in assay [2]; 49.3 µM in assay [3]; 60.8 µM in [4]; 45.8 µM in [5]; greater than 100 µM in assay [6]. Besides, the TGI in assay [7] is 54.1 µM; in assay [8], greater than 100 µM; in [9], 31.7 µM; in assay [10], 52.2 µM.

As to `OCC1CC2CC1C1(C2)OCCO1` (stereo not given), the TGI in [1], in assay [2], in assay [3], in [4], in assay [5] and in assay [6] was greater than 100 µM throughout. The TGI in assay [7], in assay [8], in assay [9] and in assay [10] was greater than 100 µM each time.

Turning to `O=C(O)CNS(=O)(=O)c1ccc(NC(=O)c2cccc([N+](=O)[O-])c2)cc1`, the TGI in assay [1], in assay [2], in [3], in assay [4], in assay [5] and in [6] was greater than 100 µM each time. Moreover, the TGI in assay [7], in assay [8], in [9] and in assay [10] was greater than 100 µM each time.

Regarding `COc1ccc(C2CC(C)=Nc3c([nH]c(=S)[nH]c3=O)N2)cc1` (stereo not given), the TGI in assay [1] turned out to be 31.2 µM; in [2] it was 19 µM; in [3], 40.4 µM; in assay [4], 55.6 µM; in [5] it was 32 µM; in assay [6], 35.9 µM. Besides, the TGI was greater than 100 µM in [7], 35.7 µM in assay [8], 36.9 µM in assay [9] and 67.4 µM in [10].

Consider `C[P+](C)(CC(F)(F)F)c1ccccc1`, for which the TGI in assay [1], in assay [2], in [3], in assay [4], in assay [5] and in [6] was greater than 100 µM each time. The TGI in assay [7], in assay [8], in assay [9] and in [10] was greater than 100 µM throughout.

As to `Cc1ccc(S(=O)(=O)ON=C2CC(c3ccccc3)N(C)C(c3ccccc3)C2)cc1` (stereo not given), the TGI in assay [1] was 44.9 µM and 58.5 µM; in assay [2], 38.8 µM and 31.2 µM; in assay [3], 63.1 µM and 55.1 µM; in assay [4], 62.9 µM and 47.8 µM; in assay [5] it was 34.1 µM; in assay [6] it was 41.4 µM and 56.8 µM. Also, the TGI in assay [7] was 30 µM; in assay [8], 35.6 µM and 36.5 µM; in assay [9], 70.8 µM; in [10], 53.2 µM and > 100 µM.
